kon data for two molecules are collected here from article PMC12368060 (Communications Biology, 2025).

Square brackets hold non-standard residues; d marks the D form. Peptide text beside a SMILES is read from it. * marks the point of attachment. FITC = O=C1OC2(c3ccc(O)cc3Oc3cc(O)ccc32)c2ccc(NC(=S)*)cc21; pS = N[C@@H](COP(=O)(O)O)C(=O)O; Ahx = NCCCCCC(=O)O

In this test the target is GST-LC3B (Homo sapiens, UniProt Q9GZQ8). The experiment in a line: Surface plasmon resonance. In kind it is binding. To be noted: read-out: kon (on-rate).

For `CC[C@H](C)[C@H](NC(=O)[C@H](CCC(=O)O)NC(=O)[C@@H](NC(=O)[C@H](Cc1ccccc1)NC(=O)[C@H](CO)NC(=O)[C@H](CC(=O)O)NC(=O)[C@H](CCC(=O)O)NC(=O)[C@H](CO)NC(=O)[C@H](CO)NC(=O)CNC(=O)[C@H](CO)NC(=O)[C@H](CO)NC(=O)[C@H](CC(N)=O)NC(=O)CCCCCNC(=S)Nc1ccc2c(c1)C(=O)OC21c2ccc(O)cc2Oc2cc(O)ccc21)C(C)C)C(=O)N[C@@H](CCCNC(=N)N)C(=O)N[C@@H](CCSC)C(=O)N[C@@H](C)C(=O)N[C@@H](CCC(=O)O)C(=O)O` [WT] ({FITC-Ahx}-NSSGSSEDSFVEIRMAE-OH), the kon amounted to 550 M⁻¹ s⁻¹.
As for `CC[C@H](C)[C@H](NC(=O)[C@H](CCC(=O)O)NC(=O)[C@@H](NC(=O)[C@H](Cc1ccccc1)NC(=O)[C@H](COP(=O)(O)O)NC(=O)[C@H](CC(=O)O)NC(=O)[C@H](CCC(=O)O)NC(=O)[C@H](CO)NC(=O)[C@H](CO)NC(=O)CNC(=O)[C@H](CO)NC(=O)[C@H](CO)NC(=O)[C@H](CC(N)=O)NC(=O)CCCCCNC(=S)Nc1ccc2c(c1)C(=O)OC21c2ccc(O)cc2Oc2cc(O)ccc21)C(C)C)C(=O)N[C@@H](CCCNC(=N)N)C(=O)N[C@@H](CCSC)C(=O)N[C@@H](C)C(=O)N[C@@H](CCC(=O)O)C(=O)O` [pS177] ({FITC-Ahx}-NSSGSSED[pS]FVEIRMAE-OH), the figure is 17800 M⁻¹ s⁻¹.
